Assay results published in article PMC7770263 (The Journal of International Medical Research, 2020).

Experiments:
[1] = Pharmacokinetic tests in rats; type: in vivo, Sprague–Dawley rats; settings: for absorption in vivo (in words) / elimination rate (in words): intravenous injection of the compound preparation
[2] = Stability test of QC samples in rat plasma; type: in vitro ADME; settings: for Extracted sample stability, Concentration / Extracted sample stability, Accuracy: extracted rat plasma samples; for Extracted sample stability, Accuracy / Long-term stability, Accuracy: relative error; for Short-term stability, Concentration / Long-term stability, Accuracy / stability values (short- and long-term stability): rat plasma; for Short-term stability, Concentration: room temperature for 24 hours; for Long-term stability, Accuracy: −20°C for 30 days; for stability values (short- and long-term stability): all QC concentrations, room temperature 24 hours and −20°C 30 days
[3] = rat plasma, intravenous injection of ticarcillin disodium and clavulanate, 144 mg/kg
[4] = rat plasma, intravenous injection, 144 mg/kg, mean ± standard deviation
[5] = rat, intravenous injection, 144 mg/kg, mean ± standard deviation
[6] = nominal concentration 2400 ng/mL
[7] = nominal concentration 8000 ng/mL
[8] = male, Sprague-Dawley, rat, plasma, iv, 144 mg/kg
[9] = nominal concentration 300 ng/mL

Compound | tmax [1, 3] [min] | AUC0-t [1, 4] | AUC0-∞ [1, 4] | absorption in vivo (in words) ([1]; rat) | CL(/F) (clearance) [1, 5] [mL/min/kg] | Vss obs (observed volume of distribution at steady state) [1, 5] [L/kg] | Extracted sample stability, Concentration ([2]; nominal concentration 30 ng/mL) [ng/mL] | Extracted sample stability, Accuracy ([2]; nominal concentration 30 ng/mL) [%] | Extracted sample stability, Concentration [2, 6] | Extracted sample stability, Accuracy [2, 6] [%] | Extracted sample stability, Concentration [2, 7] [ng/mL] | Extracted sample stability, Accuracy [2, 7] [%] | Short-term stability, Concentration ([2]; nominal concentration 30 ng/mL) [ng/mL] | Short-term stability, Concentration [2, 6] [ng/mL] | Short-term stability, Concentration [2, 7] [ng/mL] | Long-term stability, Accuracy ([2]; nominal concentration 30 ng/mL) [%] | Long-term stability, Accuracy [2, 6] [%] | Long-term stability, Accuracy [2, 7] [%] | stability values (short- and long-term stability) [2] | elimination rate (in words) ([1]; rat) | other results
CC1(C)S[C@@H]2[C@H](NC(=O)[C@@H](C(=O)O)c3ccsc3)C(=O)N2[C@H]1C(=O)O [Ticarcillin S] | 4.98 | 3270 ± 262 ng·h/mL | 3274 ± 264 ng·h/mL | rapidly absorbed in vivo | 827.8 ± 63.2 | 12.2 ± 0.68 | 30.8 ± 1.3 | 2.7 | 2,465 ± 12 ng/mL | 2.7 | 7985 ± 93 | −0.2 | 28.8 ± 0.9 | 2457 ± 19 | 7931 ± 113 | −2.3 | 1.3 | −0.6 |  |  | 
CC1(C)S[C@@H]2[C@H](NC(=O)[C@H](C(=O)O)c3ccsc3)C(=O)N2[C@H]1C(=O)O [ticarcillin] |  |  |  |  |  |  |  |  |  |  |  |  |  |  |  |  |  |  | −4.3% to 3.2 |  | 
CC1(C)S[C@@H]2[C@H](NC(=O)[C@H](C(=O)O)c3ccsc3)C(=O)N2[C@H]1C(=O)O [Ticarcillin R] | 4.98 | 3,654,298 ± 430,890 ng·h/mL | 3,654,643 ± 431,153 ng·h/mL | rapidly absorbed in vivo | 0.733 ± 0.17 | 0.02 ± 0.00 | 28.6 ± 0.8 | −4.7 | 2427 ± 16 ng/mL | 1.1 | 8291 ± 91 | 3.6 | 30.4 ± 0.6 | 2349 ± 15 | 7918 ± 107 | −4.3 | −0.5 | 0.8 |  | slower | 
O=C(O)[C@H]1/C(=C/CO)O[C@@H]2CC(=O)N21 [Clavulanate] |  |  |  | rapidly absorbed in vivo | 5780 ± 3400 |  |  |  | 2344 ± 98 ng/mL | −2.3 |  |  |  | 2389 ± 118 |  |  | −1.1 |  | −4.3% to 3.2 | shortest t1/2 and most rapid elimination | AUC0-t [1, 8]: 541 ± 254 ng·h/mL; AUC(0-inf) [1, 8]: 559 ± 251 ng·h/mL; Cmax [1, 8]: 1660 ± 667 ng/mL; half-life [1, 8]: 10.2 ± 2.4 min; tmax [1, 8]: 4.98 min; Extracted sample stability, Accuracy ([2]; nominal concentration 80 ng/mL): −2.8%; Extracted sample stability, Concentration [2, 9]: 295 ± 17 ng/mL; Extracted sample stability, Accuracy [2, 9]: −1.7%; Short-term stability, Concentration ([2]; nominal concentration 80 ng/mL): 81.4 ± 0.6 ng/mL; Short-term stability, Concentration [2, 9]: 305 ± 11 ng/mL; Long-term stability, Accuracy ([2]; nominal concentration 80 ng/mL): 3.2%; Long-term stability, Accuracy [2, 9]: −3.7%
